# Measurements reported in ChEMBL document CHEMBL4376834, “Discovery of 4H-Chromen-4-one Derivatives as a New Class of Selective Rho Kinase (ROCK) Inhibitors, which Showed Potent Activity in ex Vivo Diabetic Retinopathy Models” (J Med Chem, 2019).
# Key:
# [1] = target: Tyrosine-protein kinase Fyn (Homo sapiens, UniProt P06241); experiment: Inhibition of recombinant full length human Fyn using […] as substrate after 40 mins in presence of [gamma-33ATP] by radiometric scintillation counting analysis
# [2] = target: Tyrosine-protein kinase JAK1 (Homo sapiens, UniProt P23458); experiment: Inhibition of human recombinant JAK1 (866 to end residues) using GEEPLYWSFPAKK as substrate after 40 mins by [gamma-33ATP] by radiometric scintillation counting analysis
# [3] = target: Insulin receptor (Homo sapiens, UniProt P06213); experiment: Inhibition of human recombinant IR (1005 to 1310 residues) using KKSRGDYMTMQIG as substrate after 40 mins by [gamma-33ATP] by radiometric scintillation counting analysis
# [4] = target: PI3K p110 beta/p85 alpha (Homo sapiens, UniProt P42338); experiment: Inhibition of recombinant human full length PI3K p110beta/p85alpha using phosphatidylinositol-4, 5-bisphosphate as substrate incubated for 40 mins in presence of [gamma33P]ATP by radiometric scintillation counting analysis; format: protein-complex assay
# [5] = target: Insulin-like growth factor 1 receptor (Homo sapiens, UniProt P08069); experiment: Inhibition of human recombinant activated IGF1R (959 to end residues) using KKKSPGEYVNIEF as substrate after 40 mins by [gamma-33ATP] by radiometric scintillation counting analysis
# [6] = target: Focal adhesion kinase 1 (Homo sapiens, UniProt Q05397); experiment: Inhibition of recombinant human FAK (411 to 686 residues) using EEEEYEEEEEEYY as substrate after 40 mins in presence of [gamma-33ATP] by radiometric scintillation counting analysis
# [7] = target: CDK2/Cyclin A1 (Homo sapiens, UniProt P24941); experiment: Inhibition of recombinant full length human CDK2/CyclinA using Histone H1 as substrate incubated for 40 mins in presence of [gamma-33ATP] by radiometric scintillation counting analysis; format: protein-complex assay
# [8] = target: Serine/threonine-protein kinase SIK3 (Homo sapiens, UniProt Q9Y2K2); experiment: Inhibition of recombinant human SIK3 (1 to 307 residues) using KKKVSRSGLYRSP as substrate incubated for 40 mins in presence of [gamma33P]ATP by radiometric scintillation counting analysis
# [9] = target: Serine/threonine-protein kinase Nek6 (Homo sapiens, UniProt Q9HC98); experiment: Inhibition of recombinant human NEK6 (2 to end residues) using FLAKSFGSPNRAYKK as substrate measured after 40 mins in presence of [gamma33P]ATP by radiometric scintillation counting analysis
# [10] = target: CDK18/Cyclin Y (Homo sapiens, UniProt Q07002+Q8ND76, T166M); experiment: Inhibition of recombinant full length human cyclinY/CDK18 T166M mutant using YRRAAVPPSPSLS as substrate measured after 40 mins in presence of [gamma33P]ATP by radiometric scintillation counting analysis; format: protein-complex assay
# [11] = target: Serine/threonine-protein kinase MAK (Homo sapiens, UniProt P20794); experiment: Inhibition of recombinant human MAK using RRRFRPASPLRGP as substrate after 120 mins in presence of [gamma-33ATP] by radiometric scintillation counting analysis
# [12] = target: DNA-dependent protein kinase catalytic subunit (Homo sapiens, UniProt P78527); experiment: Inhibition of recombinant full length human DNA-PK using GST-cMyc-p53 as substrate incubated for 40 mins by fluorescence assay
# [13] = Protein binding in rat plasma at 1 uM incubated incubated for 5 hrs under shaking conditions by LC-MS analysis; format: ADME, cell-free; conditions: read-out: PPB (converted)
# [14] = target: Tyrosine-protein kinase HCK (Homo sapiens, UniProt P08631); experiment: Inhibition of human HCK recombinant (230 to 497 residues) using […] as substrate after 40 mins by [gamma-33ATP] radiometric assay
# [15] = target: SRSF protein kinase 3 (Homo sapiens, UniProt Q9UPE1); experiment: Inhibition of recombinant full-length human MSSK1 using ERMRPRKRQGSVRRRV as substrate measured after 40 mins in presence of [gamma33P]ATP by radiometric scintillation counting analysis
# [16] = target: Serine/threonine-protein kinase NIM1 (Homo sapiens, UniProt Q8IY84); experiment: Inhibition of recombinant full length human NIM1 using KKKVSRSGLYRSP as substrate measured after 40 mins in presence of [gamma33P]ATP by radiometric scintillation counting analysis
# [17] = target: Fibroblast growth factor receptor 2 (Homo sapiens, UniProt P21802, N549H); experiment: Inhibition of recombinant human FGFR2 N549H mutant (456 to 765 residues) using GGEEEEYFELVKK as substrate after 40 mins in presence of [gamma-33ATP] by radiometric scintillation counting analysis
# [18] = target: Serine/threonine-protein kinase 17A (Homo sapiens, UniProt Q9UEE5); experiment: Inhibition of recombinant full length human DRAK1 using KKLNRTLSFAEPG as substrate after 40 mins in presence of [gamma-33ATP] by radiometric scintillation counting analysis
# [19] = target: MAP/microtubule affinity-regulating kinase 3 (Homo sapiens, UniProt P27448); experiment: Inhibition of recombinant full length human MARK3 using KKKVSRSGLYRSP as substrate incubated for 40 mins in presence of [gamma-33ATP by radiometric scintillation counting analysis
# [20] = target: STE20-like serine/threonine-protein kinase (Homo sapiens, UniProt Q9H2G2); experiment: Inhibition of recombinant human SLK (1 to 373 residues) using RLGRDKYKTLRQI as substrate incubated for 40 mins in presence of [gamma33P]ATP by radiometric scintillation counting analysis
# [21] = target: Interleukin-1 receptor-associated kinase 1 (Homo sapiens, UniProt P51617); experiment: Inhibition of human recombinant IRAK1 (194 to end residues) using myelin basic protein as substrate after 40 mins by [gamma-33ATP] by radiometric scintillation counting analysis
# [22] = n-Octanol-water partition coefficient, logD of compound at 1 mg measured after 48 hrs under shaking condition by LC-MS analysis; format: physicochemical
# [23] = target: 5'-AMP-activated protein kinase catalytic subunit alpha-2 (Homo sapiens, UniProt P54646); experiment: Inhibition of human full length AMPKalpha2 recombinant using AMARAASAAALAR as substrate incubated for 40 mins in presence of [gamma-33ATP] by radiometric scintillation counting analysis
# [24] = target: Serine/threonine-protein kinase PLK3 (Homo sapiens, UniProt Q9H4B4); experiment: Inhibition of recombinant human Plk3 (19 to 301 residues) using casein as substrate incubated for 40 mins in presence of [gamma33P]ATP by radiometric scintillation counting analysis
# [25] = target: Serine/threonine-protein kinase Nek1 (Homo sapiens, UniProt Q96PY6); experiment: Inhibition of recombinant human NEK1 (1 to 505 residues) using RLGRDKYKTLRQI as substrate measured after 40 mins in presence of [gamma33P]ATP by radiometric scintillation counting analysis
# [26] = target: Mitogen-activated protein kinase 14 (Homo sapiens, UniProt Q16539, T106M); experiment: Inhibition of recombinant human full length SAPK2a T106M mutant using myelin basic protein as substrate incubated for 40 mins in presence of [gamma33P]ATP by radiometric scintillation counting analysis
# Mitogen-activated protein kinase 14, sequence (Q16539 2-360 T106M limits assumed): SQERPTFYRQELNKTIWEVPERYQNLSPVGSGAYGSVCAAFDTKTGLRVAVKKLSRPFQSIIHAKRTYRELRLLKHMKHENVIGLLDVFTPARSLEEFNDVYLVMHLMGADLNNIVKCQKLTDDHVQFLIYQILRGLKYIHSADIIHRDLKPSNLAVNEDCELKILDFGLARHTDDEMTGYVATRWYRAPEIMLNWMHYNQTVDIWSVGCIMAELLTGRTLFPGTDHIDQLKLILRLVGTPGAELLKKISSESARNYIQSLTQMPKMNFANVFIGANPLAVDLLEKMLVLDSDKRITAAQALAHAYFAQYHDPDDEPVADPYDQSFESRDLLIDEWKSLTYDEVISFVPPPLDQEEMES
# Serine/threonine-protein kinase NIM1, sequence (Q8IY84 whole entry, the tested form may be a part): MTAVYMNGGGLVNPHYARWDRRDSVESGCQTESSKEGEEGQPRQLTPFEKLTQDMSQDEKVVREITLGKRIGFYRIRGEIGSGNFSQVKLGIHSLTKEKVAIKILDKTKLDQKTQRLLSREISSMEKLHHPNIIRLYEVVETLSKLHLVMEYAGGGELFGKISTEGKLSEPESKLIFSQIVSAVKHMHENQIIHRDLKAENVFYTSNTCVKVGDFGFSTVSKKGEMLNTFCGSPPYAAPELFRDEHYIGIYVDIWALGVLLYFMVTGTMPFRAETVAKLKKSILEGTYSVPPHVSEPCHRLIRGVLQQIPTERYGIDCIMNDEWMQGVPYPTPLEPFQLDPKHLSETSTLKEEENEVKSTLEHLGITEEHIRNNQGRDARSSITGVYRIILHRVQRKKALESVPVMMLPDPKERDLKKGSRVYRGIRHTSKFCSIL
# Serine/threonine-protein kinase PLK3, sequence (Q9H4B4 whole entry, the tested form may be a part): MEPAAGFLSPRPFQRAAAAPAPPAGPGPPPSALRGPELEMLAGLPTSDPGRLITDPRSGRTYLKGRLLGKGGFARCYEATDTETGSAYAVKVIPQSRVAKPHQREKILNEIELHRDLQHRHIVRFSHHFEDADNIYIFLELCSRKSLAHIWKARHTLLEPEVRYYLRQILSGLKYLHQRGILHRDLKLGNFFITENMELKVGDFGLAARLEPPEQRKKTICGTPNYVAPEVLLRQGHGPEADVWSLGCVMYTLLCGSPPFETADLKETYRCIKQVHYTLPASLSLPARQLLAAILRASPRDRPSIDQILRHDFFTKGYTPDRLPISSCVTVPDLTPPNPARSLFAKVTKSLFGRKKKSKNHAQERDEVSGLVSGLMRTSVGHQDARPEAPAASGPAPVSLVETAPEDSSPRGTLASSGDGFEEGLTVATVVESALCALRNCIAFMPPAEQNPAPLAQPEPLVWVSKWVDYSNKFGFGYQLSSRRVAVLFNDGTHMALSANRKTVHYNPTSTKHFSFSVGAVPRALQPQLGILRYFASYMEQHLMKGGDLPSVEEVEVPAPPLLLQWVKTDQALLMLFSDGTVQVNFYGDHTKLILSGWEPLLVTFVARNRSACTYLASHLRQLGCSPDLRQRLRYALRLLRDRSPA
# Serine/threonine-protein kinase Nek6, sequence (Q9HC98 whole entry): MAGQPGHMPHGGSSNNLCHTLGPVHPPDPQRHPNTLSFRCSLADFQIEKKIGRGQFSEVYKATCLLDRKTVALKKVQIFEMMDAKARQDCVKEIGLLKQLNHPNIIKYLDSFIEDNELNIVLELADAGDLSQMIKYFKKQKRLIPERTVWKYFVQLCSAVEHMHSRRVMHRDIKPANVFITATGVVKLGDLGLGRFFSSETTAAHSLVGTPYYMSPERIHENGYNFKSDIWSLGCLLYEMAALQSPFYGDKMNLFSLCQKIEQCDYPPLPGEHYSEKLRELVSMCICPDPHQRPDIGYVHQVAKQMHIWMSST
# Serine/threonine-protein kinase SIK3, sequence (Q9Y2K2 whole entry, the tested form may be a part): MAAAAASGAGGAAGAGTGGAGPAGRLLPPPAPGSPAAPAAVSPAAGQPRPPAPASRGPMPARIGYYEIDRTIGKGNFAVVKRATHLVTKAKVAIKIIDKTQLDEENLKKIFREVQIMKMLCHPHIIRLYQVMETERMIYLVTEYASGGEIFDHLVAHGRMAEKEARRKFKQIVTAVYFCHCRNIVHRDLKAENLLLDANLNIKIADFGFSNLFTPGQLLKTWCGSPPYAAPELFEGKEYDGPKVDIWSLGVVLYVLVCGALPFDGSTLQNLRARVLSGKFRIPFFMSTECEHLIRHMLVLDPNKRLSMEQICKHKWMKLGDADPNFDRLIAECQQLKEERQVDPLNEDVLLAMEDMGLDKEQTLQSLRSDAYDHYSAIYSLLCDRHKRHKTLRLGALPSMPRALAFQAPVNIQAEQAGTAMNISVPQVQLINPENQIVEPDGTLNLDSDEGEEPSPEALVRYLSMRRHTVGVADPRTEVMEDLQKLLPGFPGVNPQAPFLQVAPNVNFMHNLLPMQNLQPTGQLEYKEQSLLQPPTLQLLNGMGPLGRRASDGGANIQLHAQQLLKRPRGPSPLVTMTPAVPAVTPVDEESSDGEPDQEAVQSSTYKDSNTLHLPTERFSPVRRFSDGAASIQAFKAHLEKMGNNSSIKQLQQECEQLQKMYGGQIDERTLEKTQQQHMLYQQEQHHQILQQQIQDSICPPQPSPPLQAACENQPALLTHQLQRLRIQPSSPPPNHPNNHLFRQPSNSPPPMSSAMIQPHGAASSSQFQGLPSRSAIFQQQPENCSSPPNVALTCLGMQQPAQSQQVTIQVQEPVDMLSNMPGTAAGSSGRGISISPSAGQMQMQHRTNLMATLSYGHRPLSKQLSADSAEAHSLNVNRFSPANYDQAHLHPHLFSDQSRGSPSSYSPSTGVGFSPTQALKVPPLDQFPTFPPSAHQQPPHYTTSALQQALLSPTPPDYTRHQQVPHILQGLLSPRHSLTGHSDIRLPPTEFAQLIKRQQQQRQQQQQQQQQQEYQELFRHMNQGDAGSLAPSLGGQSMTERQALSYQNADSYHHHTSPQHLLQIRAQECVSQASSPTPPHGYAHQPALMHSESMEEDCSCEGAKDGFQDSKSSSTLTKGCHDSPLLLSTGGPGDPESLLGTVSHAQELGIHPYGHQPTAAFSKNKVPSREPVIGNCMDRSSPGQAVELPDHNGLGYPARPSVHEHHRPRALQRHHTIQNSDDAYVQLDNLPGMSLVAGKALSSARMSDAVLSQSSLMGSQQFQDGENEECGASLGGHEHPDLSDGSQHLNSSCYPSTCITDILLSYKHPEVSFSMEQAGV
# Insulin-like growth factor 1 receptor, sequence (P08069 31-736 limits assumed): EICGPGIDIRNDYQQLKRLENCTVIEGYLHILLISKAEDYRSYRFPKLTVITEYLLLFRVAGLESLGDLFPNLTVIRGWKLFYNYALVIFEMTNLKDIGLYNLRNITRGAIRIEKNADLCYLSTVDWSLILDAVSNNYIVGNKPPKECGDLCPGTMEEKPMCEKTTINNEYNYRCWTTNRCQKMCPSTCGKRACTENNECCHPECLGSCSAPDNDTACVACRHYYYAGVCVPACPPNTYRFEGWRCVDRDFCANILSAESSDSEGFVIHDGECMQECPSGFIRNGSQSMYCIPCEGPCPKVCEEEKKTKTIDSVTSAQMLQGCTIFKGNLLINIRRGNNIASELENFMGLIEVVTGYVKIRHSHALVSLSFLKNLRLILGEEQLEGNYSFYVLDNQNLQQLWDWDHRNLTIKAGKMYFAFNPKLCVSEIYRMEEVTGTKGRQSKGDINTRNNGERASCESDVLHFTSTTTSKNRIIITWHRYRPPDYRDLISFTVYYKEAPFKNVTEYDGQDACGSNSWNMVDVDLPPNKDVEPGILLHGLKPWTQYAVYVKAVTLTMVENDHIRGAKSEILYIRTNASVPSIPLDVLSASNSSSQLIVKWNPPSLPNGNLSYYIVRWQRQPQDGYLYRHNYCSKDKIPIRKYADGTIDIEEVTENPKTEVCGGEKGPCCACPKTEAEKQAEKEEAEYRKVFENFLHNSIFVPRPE
# Insulin-like growth factor 1 receptor, sequence (P08069 741-1367 limits assumed): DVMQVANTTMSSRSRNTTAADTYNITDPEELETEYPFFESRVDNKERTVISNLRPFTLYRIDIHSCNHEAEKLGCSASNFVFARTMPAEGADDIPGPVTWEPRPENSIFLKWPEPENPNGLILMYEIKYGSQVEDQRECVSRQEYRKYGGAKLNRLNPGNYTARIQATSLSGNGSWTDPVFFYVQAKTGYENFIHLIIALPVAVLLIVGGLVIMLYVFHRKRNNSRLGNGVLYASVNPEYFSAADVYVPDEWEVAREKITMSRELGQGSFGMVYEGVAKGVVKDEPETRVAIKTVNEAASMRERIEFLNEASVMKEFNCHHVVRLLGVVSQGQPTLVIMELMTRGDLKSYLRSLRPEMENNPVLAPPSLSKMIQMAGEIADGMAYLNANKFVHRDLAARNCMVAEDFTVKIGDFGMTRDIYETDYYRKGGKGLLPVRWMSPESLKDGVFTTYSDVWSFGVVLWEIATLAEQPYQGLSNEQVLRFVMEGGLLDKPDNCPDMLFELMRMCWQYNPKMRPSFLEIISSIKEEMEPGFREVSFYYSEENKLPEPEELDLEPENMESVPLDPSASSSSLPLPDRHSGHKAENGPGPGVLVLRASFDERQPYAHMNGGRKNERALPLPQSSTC
# SRSF protein kinase 3, sequence (Q9UPE1 whole entry): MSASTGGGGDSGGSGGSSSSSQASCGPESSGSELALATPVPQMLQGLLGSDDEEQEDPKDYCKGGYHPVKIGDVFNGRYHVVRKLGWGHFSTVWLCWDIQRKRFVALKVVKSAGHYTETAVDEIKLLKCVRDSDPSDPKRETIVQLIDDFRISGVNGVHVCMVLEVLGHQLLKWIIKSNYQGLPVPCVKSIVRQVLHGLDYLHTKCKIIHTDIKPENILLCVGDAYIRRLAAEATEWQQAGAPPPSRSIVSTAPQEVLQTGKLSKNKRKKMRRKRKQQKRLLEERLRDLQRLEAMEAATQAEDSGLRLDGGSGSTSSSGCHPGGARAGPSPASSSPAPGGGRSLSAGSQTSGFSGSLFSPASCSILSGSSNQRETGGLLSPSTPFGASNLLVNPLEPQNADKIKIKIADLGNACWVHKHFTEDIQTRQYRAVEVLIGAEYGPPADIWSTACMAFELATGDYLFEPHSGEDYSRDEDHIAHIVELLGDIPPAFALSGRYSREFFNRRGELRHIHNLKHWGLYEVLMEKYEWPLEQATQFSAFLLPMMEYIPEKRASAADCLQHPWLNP
compound,measurement,setting,value
CN(C)c1ccc(C(=O)Nc2cccc(NC(=O)COc3ccc4c(=O)ccoc4c3)c2)cc1,IC50,[1],> 10 µM
same,IC50,[2],> 10 µM
same,IC50,[3],> 10 µM
same,IC50,[4],> 10 µM
same,IC50,[5],> 10 µM
same,IC50,[6],> 10 µM
same,IC50,[7],> 10 µM
same,IC50,[8],> 10 µM
same,IC50,[9],> 10 µM
same,IC50,[10],> 10 µM
same,IC50,[11],> 10 µM
same,IC50,[12],> 10 µM
same,"fraction unbound at 5 h, 1 µM",[13],0.004
same,IC50,[14],> 10 µM
same,IC50,[15],> 10 µM
same,IC50,[16],> 10 µM
same,IC50,[17],> 10 µM
same,IC50,[18],> 10 µM
same,IC50,[19],> 10 µM
same,IC50,[20],> 10 µM
same,IC50,[21],> 10 µM
same,logD at 48 h,[22],2.65
same,IC50,[23],> 10 µM
same,IC50,[24],> 10 µM
same,IC50,[25],> 10 µM
same,IC50,[26],> 10 µM
